Measurements taken from ChEMBL document CHEMBL1201862, “PubChem BioAssay data set” (2004).
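Method: 48-hour compound exposure of cells in 96-well plates, five concentrations, linear interpolation of endpoints. At the GI50, growth is halved.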 Activity calls are given as the source filed them. No stated cut-off is given here; in the data, active = GI50 up to about 1.1 µM and inactive = higher.

Tests used:
Assay in all cases: inhibition of tumour cell growth, NCI panel, 48 h
[1] = test system: KM12
[2] = test system: HCC 2998
[3] = test system: HOP-92
[4] = test system: UO-31
[5] = test system: MOLT-4
[6] = test system: SNB-75
[7] = test system: NCI-H522
[8] = test system: MCF7
[9] = test system: HT-29
[10] = test system: MDA-MB-435
[11] = test system: 786-0
[12] = test system: HL-60
[13] = test system: HOP-62
[14] = test system: MDA-MB-231
[15] = test system: T47D
[16] = test system: RPMI-8226
[17] = test system: HCT-116
[18] = test system: UACC-62
[19] = test system: COLO 205
[20] = test system: A549

Measured: GI50

C=C1c2nc3ccccc3n2C=C(c2ccc(C)cc2)N1c1ccc(OC)cc1
inactive: [1] 5.56 µM | [2] 31.8 µM | [3] > 48.2 µM | [4] 44.5 µM | [5] 15.2 µM | [6] > 80 µM | [7] 7.52 µM | [8] 15.3 µM | [9] 8.89 µM | [10] 3.04 µM | [11] > 100 µM | [12] 8.34 µM | [13] > 100 µM | [14] > 100 µM | [15] 26.2 µM | [16] 13 µM | [17] 19.5 µM | [18] 51.3 µM | [19] 31.9 µM | [20] 47.5 µM

C[N+]1=C2[B-](C(C)(C)C)=[N+](C(C)(C)C)[B-]2(C(C)(C)C)[N+](C)=C2[B-](C(C)(C)C)=[N+](C(C)(C)C)[B-]21C(C)(C)C (stereo not given)
inactive: [1] > 100 µM | [2] > 100 µM | [3] > 100 µM | [4] > 100 µM | [5] > 100 µM | [6] > 100 µM | [7] > 100 µM | [8] 59.4 µM | [9] > 100 µM | [10] > 100 µM | [11] > 100 µM | [12] > 100 µM | [13] > 100 µM | [14] > 100 µM | [15] > 100 µM | [16] > 100 µM | [17] > 100 µM | [18] > 100 µM | [19] > 100 µM | [20] > 100 µM

CC(=O)C1(O)CCC2(O)C3(O)CC=C4CC(O)CCC4(C)C3CC(OC(=O)c3ccc(O)cc3)C12C (stereo not given)
inactive: [1] > 100 µM | [2] > 100 µM | [3] > 100 µM | [4] > 100 µM | [5] 46.2 µM | [6] > 100 µM | [7] > 100 µM | [8] > 100 µM | [9] > 100 µM | [10] > 100 µM | [11] > 100 µM | [12] > 100 µM | [13] > 100 µM | [14] > 100 µM | [15] > 100 µM | [16] > 100 µM | [17] > 100 µM | [18] 75.2 µM | [19] > 100 µM | [20] > 100 µM

CCOC(=O)/C=C1\C[C@H](NC(=O)OCc2ccccc2)C(=O)N1CC(=O)OCC
inactive: [1] > 100 µM | [2] > 100 µM | [3] > 100 µM | [4] > 100 µM | [5] > 100 µM | [6] > 100 µM | [7] > 100 µM | [8] > 100 µM | [9] > 100 µM | [10] > 100 µM | [11] > 100 µM | [12] > 100 µM | [13] > 100 µM | [14] > 100 µM | [15] > 100 µM | [16] > 100 µM | [17] > 100 µM | [18] > 100 µM | [19] > 100 µM | [20] > 100 µM

O=C(/C=C/c1ccc(Cl)c(Cl)c1)CCN1CCN(CCC(=O)/C=C/c2ccc(Cl)c(Cl)c2)CC1
inactive: [1] 12.5 µM | [2] 14.1 µM | [3] 22.8 µM | [4] 16.8 µM | [5] 22.3 µM | [6] 31.9 µM | [7] 8.13 µM | [8] 4.04 µM | [9] 17.7 µM | [10] 21.8 µM | [11] 6.9 µM | [12] 6.22 µM | [13] 21.9 µM | [14] 25 µM | [15] 24.8 µM | [16] 3.21 µM | [17] 7.55 µM | [18] 19.6 µM | [19] 21.8 µM | [20] 30.2 µM

C=C(C)[C@@H]1CC[C@]2(C)CC[C@]3(C)[C@H](CC[C@@H]4[C@@]5(C)CC[C@H](OC(=O)c6ccccc6)C(C)(C)[C@@H]5CC[C@]43C)[C@@H]12
inactive: [1] > 100 µM | [2] > 100 µM | [3] > 100 µM | [4] > 100 µM | [5] > 100 µM | [6] 90.8 µM | [7] > 100 µM | [8] > 100 µM | [9] > 100 µM | [10] > 100 µM | [11] > 100 µM | [12] > 100 µM | [13] > 100 µM | [14] > 100 µM | [15] > 100 µM | [16] > 100 µM | [17] > 100 µM | [18] > 100 µM | [19] > 100 µM | [20] > 100 µM

N#CC(C#N)=C(N)/C(C#N)=C/c1cc(O)c(O)c(Br)c1
inactive: [1] 75.9 µM | [2] > 74 µM | [3] 46 µM | [4] 42.4 µM | [5] 36.2 µM | [6] 52.7 µM | [7] 40.5 µM | [8] 49.4 µM | [9] 37.4 µM | [10] 78.5 µM | [11] > 78.2 µM | [12] 28.1 µM | [13] > 69.7 µM | [14] 88.5 µM | [15] 32.7 µM | [16] > 100 µM | [17] 37.8 µM | [18] 39.4 µM | [19] 52.2 µM | [20] 59.4 µM
